Consider seven molecules from PMC6757289, “Design and Characterization of SGK3-PROTAC1, an Isoform Specific SGK3 Kinase PROTAC Degrader” (ACS Chemical Biology, 2019).

Bounds are passed on as bounds.

The target of the assay is T1, SGK3 (Homo sapiens, UniProt Q96BR1).
T1 sequence (Q96BR1 1-496): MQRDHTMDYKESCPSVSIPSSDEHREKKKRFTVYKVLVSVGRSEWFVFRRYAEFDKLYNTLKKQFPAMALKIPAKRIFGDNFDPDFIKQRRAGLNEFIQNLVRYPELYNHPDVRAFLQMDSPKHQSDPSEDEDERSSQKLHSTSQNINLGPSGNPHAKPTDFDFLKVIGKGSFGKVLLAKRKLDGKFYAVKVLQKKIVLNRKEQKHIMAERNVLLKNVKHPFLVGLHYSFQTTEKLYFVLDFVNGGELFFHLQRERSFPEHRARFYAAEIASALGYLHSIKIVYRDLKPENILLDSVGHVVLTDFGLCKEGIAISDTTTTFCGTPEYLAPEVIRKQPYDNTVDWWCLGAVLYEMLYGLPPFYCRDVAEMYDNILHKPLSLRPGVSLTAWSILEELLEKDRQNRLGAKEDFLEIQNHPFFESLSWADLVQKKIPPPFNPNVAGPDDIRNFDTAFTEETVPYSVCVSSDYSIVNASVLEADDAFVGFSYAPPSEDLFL
The experiment in a line: SGK3 degradation in HEK293 cells, immunoblot. It is filed as cell-based. Details: reduced endogenous SGK isoform or S6K1 expression when administered to HEK293 cells for 48 h; endogenous in cells; host or cells: HEK293; Dmax: dose or concentration left out as unconfirmed. Particulars: for remaining activity at 0.001 µM / remaining activity at 0.01 µM / remaining activity at 0.1 µM / remaining activity at 1 µM / remaining activity at 10 µM: Figure 2. As to the method: Figure 1 Design and cellular activity of first generation SGK3 PROTACs. (A) Structure of compound 14H, previously published by Sanofi as an inhibitor of SGK3. (B) Starting material for SGK PROTACs. […] (C) Structures of first generation SGK PROTACs. SGK and E3 ligase targeting motifs were joined by a 3xPEG linker to produce the PROTACs. (D) HEK293 cells were treated for 48 h with increasing concentrations of each PROTAC compound from 0.1 nM to 10 μM. Cell lysates were subjected to immunoblot analysis with the indicated antibodies, and SGK3 protein levels were quantified in Image Studio Lite software (Licor).
Figure 2 Design and cellular evaluation of second and third generation SGK PROTACs. (A) Chemical structure of compounds DAT5–12, expanding upon DAT1. (B) Chemical structure of cisSGK3-PROTAC1. (C) HEK293 cells were treated for 48 h with increasing concentrations of each PROTAC compound from 1 nM to 10 μM. Cell lysates were subjected to immunoblot analysis with the indicated antibodies, and SGK3 protein levels quantified in Image Studio Lite software. (D) HEK293 cells were treated for 48 h with increasing concentrations of each PROTAC compound from 1 nM to 10 μM. Cell lysates were subjected to immunoblot analysis with the indicated antibodies, and SGK3 and S6K1 protein levels were quantified in Image Studio Lite software. TEXT PRINTED IN THE PICTURE: (C) DAT1: % SGK3: 100 (48h Treatment (μM): 0); % SGK3: 94 (48h Treatment (μM): 0.001); % SGK3: 82 (48h Treatment (μM): 0.01); % SGK3: 70 (48h Treatment (μM): 0.1); % SGK3: 52 (48h Treatment (μM): 1); % SGK3: 31 (48h Treatment (μM): 10) | (C) DAT5: % SGK3: 100 (48h Treatment (μM): 0); % SGK3: 104 (48h Treatment (μM): 0.001); % SGK3: 82 (48h Treatment (μM): 0.01); % SGK3: 92 (48h Treatment (μM): 0.1); % SGK3: 73 (48h Treatment (μM): 1); % SGK3: 36 (48h Treatment (μM): 10) | (C) DAT6: % SGK3: 100 (48h Treatment (μM): 0); % SGK3: 105 (48h Treatment (μM): 0.001); % SGK3: 90 (48h Treatment (μM): 0.01); % SGK3: 71 (48h Treatment (μM): 0.1); % SGK3: 44 (48h Treatment (μM): 1); % SGK3: 20 (48h Treatment (μM): 10) | (C) DAT7: % SGK3: 100 (48h Treatment (μM): 0); % SGK3: 77 (48h Treatment (μM): 0.001); % SGK3: 80 (48h Treatment (μM): 0.01); % SGK3: 95 (48h Treatment (μM): 0.1); % SGK3: 37 (48h Treatment (μM): 1); % SGK3: 29 (48h Treatment (μM): 10) | (D) DAT8: % SGK3: 100 (48h Treatment (μM): 0); % SGK3: 97 (48h Treatment (μM): 0.001); % SGK3: 107 (48h Treatment (μM): 0.01); % SGK3: 34 (48h Treatment (μM): 0.1); % SGK3: 24 (48h Treatment (μM): 1); % SGK3: 19 (48h Treatment (μM): 10) | (D) DAT9: % SGK3: 100 (48h Treatment (μM): 0); % SGK3: 105 (48h Treatment (μM): 0.001); % SGK3: 71 (48h Treatment (μM): 0.01); % SGK3: 40 (48h Treatment (μM): 0.1); % SGK3: 11 (48h Treatment (μM): 1); % SGK3: 12 (48h Treatment (μM): 10) | (D) DAT10: % SGK3: 100 (48h Treatment (μM): 0); % SGK3: 100 (48h Treatment (μM): 0.001); % SGK3: 76 (48h Treatment (μM): 0.01); % SGK3: 54 (48h Treatment (μM): 0.1); % SGK3: 11 (48h Treatment (μM): 1); % SGK3: 9 (48h Treatment (μM): 10) | (D) DAT11: % SGK3: 100 (48h Treatment (μM): 0); % SGK3: 96 (48h Treatment (μM): 0.001); % SGK3: 97 (48h Treatment (μM): 0.01); % SGK3: 41 (48h Treatment (μM): 0.1); % SGK3: 32 (48h Treatment (μM): 1); % SGK3: 29 (48h Treatment (μM): 10) | (D) DAT12: % SGK3: 100 (48h Treatment (μM): 0); % SGK3: 106 (48h Treatment (μM): 0.001); % SGK3: 84 (48h Treatment (μM): 0.01); % SGK3: 79 (48h Treatment (μM): 0.1); % SGK3: 32 (48h Treatment (μM): 1); % SGK3: 29 (48h Treatment (μM): 10) DOUBTS OF THE COPYIST ABOUT THIS PICTURE: All % SGK3 values are quantification numbers printed under immunoblot lanes; each was assigned to a concentration by lane position / DAT9 and DAT10, % SGK3: the first numbers are printed run together ('100105', '100100') and were split as 100 | 105 and 100 | 100
Figure 3 Characterization of cellular activities of SGK3-PROTAC1 and cisSGK3-PROTAC1. […]
A general note: A western blot detects proteins with antibodies after separation by electrophoresis.

[1] abbreviates: HEK293, washout after 24 h of treatment.

By remaining activity is commonly meant the signal under treatment as a percentage of the control signal. With `Cc1ccc(F)c(S(=O)(=O)Nc2ccc(-c3nc(OC[C@H]4CN(CCOCCOCCOCC(=O)N[C@H](C(=O)N5C[C@H](O)C[C@H]5C(=O)NCc5ccc(-c6scnc6C)cc5)C(C)(C)C)CCO4)c4cn[nH]c4n3)cc2)c1` [DAT1], the “time of maximal reduction of SGK3 expression” value (HEK293, 1 μM) is given as no more than 16 h. Moreover, the “concentration that maximally reduced SGK3 expression” value (HEK293, 8 h time point, dose response) is 2 µM. Also, where the note is “HEK293, 48 h”, the SGK3 degradation efficiency result is “+ (“+” = >50% degradation at 10 μM)”, the remaining activity at 0.001 µM amounted to 94% and the remaining activity at 0.01 µM was 82%. In addition, the remaining activity at 0.1 µM (HEK293, 48 h, 0.1 μM) was 70%. Besides, under “HEK293, 48 h, 1 μM”, the “reduction of SGK3 expression” value was determined as 60% and the remaining activity at 1 µM is 52%. Besides, for the setting “HEK293, 48 h, 10 μM”, the “reduction of SGK3 expression” value came out at 75% and the remaining activity at 10 µM worked out at 31%.
For `Cc1ccc(F)c(S(=O)(=O)Nc2ccc(-c3nc(OC[C@H]4CN(CCOCCOCC(=O)N[C@H](C(=O)N5C[C@H](O)C[C@H]5C(=O)NCc5ccc(-c6scnc6C)cc5)C(C)(C)C)CCO4)c4cn[nH]c4n3)cc2)c1` [DAT5], for the setting “HEK293, 48 h”, the SGK3 degradation efficiency entry is reported as “+ (“+” = >50% degradation at 10 μM)”, the remaining activity at 0.001 µM was 104% and the remaining activity at 0.01 µM came out at 82%. The remaining activity at 0.1 µM (HEK293, 48 h, 0.1 μM) is 92%. The remaining activity at 1 µM (HEK293, 48 h, 1 μM) worked out at 73%. The remaining activity at 10 µM (HEK293, 48 h, 10 μM) turned out to be 36%.
As to `Cc1ccc(F)c(S(=O)(=O)Nc2ccc(-c3nc(OC[C@H]4CN(CCOCCOCCOCCOCC(=O)N[C@H](C(=O)N5C[C@H](O)C[C@H]5C(=O)NCc5ccc(-c6scnc6C)cc5)C(C)(C)C)CCO4)c4cn[nH]c4n3)cc2)c1` [DAT6], where the note is “HEK293, 48 h”, the SGK3 degradation efficiency entry is on record as “++ (“++” = >50% degradation at 1 μM)”, the remaining activity at 0.001 µM was found to be 105% and the remaining activity at 0.01 µM is 90%. The remaining activity at 0.1 µM (HEK293, 48 h, 0.1 μM) came out at 71%. Besides, under “HEK293, 48 h, 1 μM”, the remaining activity at 1 µM was determined as 44%. Moreover, for the setting “HEK293, 48 h, 10 μM”, the remaining activity at 10 µM is 20%.
On to `Cc1ccc(F)c(S(=O)(=O)Nc2ccc(-c3nc(OC[C@H]4CN(CCOCCOCCOCCOCCOCC(=O)N[C@H](C(=O)N5C[C@H](O)C[C@H]5C(=O)NCc5ccc(-c6scnc6C)cc5)C(C)(C)C)CCO4)c4cn[nH]c4n3)cc2)c1` [DAT7], for which, under “HEK293, 48 h”, the SGK3 degradation efficiency entry was “++ (“++” = >50% degradation at 1 μM)”, the remaining activity at 0.001 µM is 77% and the remaining activity at 0.01 µM is 80%. Also, the remaining activity at 0.1 µM (HEK293, 48 h, 0.1 μM) was 95%. Moreover, the remaining activity at 1 µM (HEK293, 48 h, 1 μM) came out at 37%. For the same molecule, the remaining activity at 10 µM (HEK293, 48 h, 10 μM) was 29%.
As to `Cc1ccc(F)c(S(=O)(=O)Nc2ccc(-c3nc(OC[C@H]4CN(CCCCCCOCCCCCCOCC(=O)N[C@H](C(=O)N5C[C@H](O)C[C@H]5C(=O)NCc5ccc(-c6scnc6C)cc5)C(C)(C)C)CCO4)c4cn[nH]c4n3)cc2)c1` [DAT10], under “HEK293, 48 h”, the SGK3 degradation efficiency entry is “++ (“++” = >50% degradation at 1 μM)”, the remaining activity at 0.001 µM is 100% and the remaining activity at 0.01 µM turned out to be 76%. Moreover, the remaining activity at 0.1 µM (HEK293, 48 h, 0.1 μM) amounted to 54%. The remaining activity at 1 µM (HEK293, 48 h, 1 μM) was determined as 11%. Further, under “HEK293, 48 h, 10 μM”, the remaining activity at 10 µM came out at 9%.
`COc1ccc(Cl)c(S(=O)(=O)Nc2ccc(-c3nc(OC[C@H]4CN(CCCCCCOCCOCCOCCOCC(=O)N[C@H](C(=O)N5C[C@H](O)C[C@H]5C(=O)NCc5ccc(-c6scnc6C)cc5)C(C)(C)C)CCO4)c4c(C)n[nH]c4n3)cc2)c1` [DAT11]: for the setting “HEK293, 48 h”, the SGK3 degradation efficiency result is recorded as “+++ (“+++” = >50% degradation at 0.1 μM)”, the remaining activity at 0.001 µM came out at 96% and the remaining activity at 0.01 µM was determined as 97%. Further, the remaining activity at 0.1 µM (HEK293, 48 h, 0.1 μM) came out at 41%. The remaining activity at 1 µM (HEK293, 48 h, 1 μM) amounted to 32%. Also, the remaining activity at 10 µM (HEK293, 48 h, 10 μM) turned out to be 29%.
In general, DC50 refers to the midpoint of the concentration-degradation curve. On to `Cc1ccc(F)c(S(=O)(=O)Nc2ccc(-c3nc(OC[C@H]4CN(CCCCCCOCCOCCOCC(=O)N[C@H](C(=O)N5C[C@H](O)C[C@H]5C(=O)NCc5ccc(-c6scnc6C)cc5)C(C)(C)C)CCO4)c4cn[nH]c4n3)cc2)c1` [SGK3-PROTAC1], for which the “degradation of endogenous SGK3” value (HEK293, 0.3 μM, within 2 h) stood at 50%. Besides, the “degradation of SGK3” value (HEK293, 8 h, cisSGK3-PROTAC1 up to 3 μM, SGK3-PROTAC1 0.1 μM) is recorded as “markedly reduced SGK3 expression”. Further, for the setting “HEK293, 48 h”, the SGK3 degradation efficiency result was “++++ (“++++” = >60% degradation at 0.1 μM)”, the remaining activity at 0.001 µM amounted to 97% and the remaining activity at 0.01 µM came to 107%. Further, where the note is “HEK293, 48 h, 0.1 μM”, the “reduction of SGK3 levels” value is on record as 65% and the remaining activity at 0.1 µM turned out to be 34%. Besides, for the setting “HEK293, 48 h, 1 μM”, the remaining activity at 1 µM stood at 24%. For the same molecule, for the setting “HEK293, 48 h, 10 μM”, the remaining activity at 10 µM is 19%. Under setting [1], the “time to increased SGK3 expression after washout” value is recorded as 1 h and the “time to return of SGK3 protein to normal levels after washout” value came out at 10 h. For the same molecule, for the setting “HEK293, within 8 h, read-out: maximal degradation of SGK3”, the Dmax is 80%. The DC50 (SGK3 degradation) was less than 100 nM.
